{"source": "patent US9307767B2", "about": "“Herbicidally and insecticidally active thiazolopyridinones” (BAYER INTELLECTUAL PROPERTY GMBH, priority 2012, dated 2016)", "assay_type_in_all_cases": "in vivo", "key": {"[1]": {"test_system": "Lolium multiflorum", "assay": "Pre-emergence herbicidal action against weed plants", "settings": "application rate 1280 g/ha, visual assessment after 3 weeks", "excerpt": "(§1) Seeds of monocotyledonous and dicotyledonous weed plants and crop plants are placed in wood-fiber pots in sandy loam and covered with soil. The compounds according to the invention, formulated in the form of wettable powders (WP) or as emulsion concentrates (EC), are then applied as aqueous suspension or emulsion at a water application rate of 600 to 800 l/ha (converted) with the addition of 0.2% of wetting agent to the surface of the covering soil. After the treatment, the pots are placed in a greenhouse and kept under good growth conditions for the test plants. The damage to the test plants is assessed visually after a test period of 3 weeks by comparison with untreated controls (herbicidal activity in percent (%): 100% action=the plants have died, 0% action=like control plants). […] The compounds Nos. I-a-38 and I-a-39 each show, at an application rate of 1280 g/ha, an of at least 80% against Echinochloa crus galli and Veronica persica and at the same time no damage in corn and oilseed rape."}, "[2]": {"test_system": "Setaria viridis", "assay": "Pre-emergence herbicidal action against weed plants", "settings": "application rate 1280 g/ha, visual assessment after 3 weeks", "excerpt": "as §1"}, "[3]": {"test_system": "oilseed rape", "assay": "Post-emergence test, damage to crop plants", "settings": "application rate 320 g/ha, after about 3 weeks", "protocol": "(§2) Seeds of monocotyledonous and dicotyledonous weed and crop plants are placed in sandy loam in wood-fiber pots, covered with soil and cultivated in a greenhouse under good growth conditions. 2 to 3 weeks after sowing, the test plants are treated at the one-leaf stage. The compounds according to the invention, formulated in the form of wettable powders (WP) or as emulsion concentrates (EC), are then sprayed as aqueous suspension or emulsion at a water application rate of 600 to 800 l/ha (converted) with the addition of 0.2% of wetting agent onto the green parts of the plants. After the test plants have been left to stand in the greenhouse under optimal growth conditions for about 3 weeks, the action of the formulations is assessed visually in comparison to untreated controls (herbicidal action in percent (%): 100% activity=the plants have died, 0% activity=like control plants). Here, the compounds Nos. I-a-39 and I-a-42, for example, show, at an application rate of 320 g/ha, an activity of at least 80% against Setaria viridis and at the same time no damage in corn and oilseed rape."}, "[4]": {"test_system": "corn", "assay": "Post-emergence test, damage to crop plants", "settings": "after about 3 weeks", "protocol": "as §2"}, "[5]": {"test_system": "wheat", "assay": "Post-emergence test, damage to crop plants", "settings": "application rate 80 g/ha, after about 3 weeks", "protocol": "as §2"}, "[6]": {"test_system": "rice", "assay": "Post-emergence test, damage to crop plants", "settings": "after about 3 weeks", "protocol": "as §2"}, "[7]": {"test_system": "wheat", "assay": "Pre-emergence test, damage to crop plants", "settings": "application rate 1280 g/ha, after 3 weeks", "excerpt": "as §1"}, "[8]": {"test_system": "Alopecurus myosuroides", "assay": "Pre-emergence herbicidal action against weed plants", "settings": "application rate 1280 g/ha, visual assessment after 3 weeks", "excerpt": "as §1"}, "[9]": {"test_system": "Cyperus serotinus", "assay": "Pre-emergence herbicidal action against weed plants", "settings": "application rate 1280 g/ha, visual assessment after 3 weeks", "excerpt": "as §1"}, "[10]": {"test_system": "rice", "assay": "Pre-emergence test, damage to crop plants", "settings": "application rate 1280 g/ha, after 3 weeks", "excerpt": "as §1"}, "[11]": {"test_system": "larvae of the mustard beetle (Phaedon cochleariae)", "assay": "Phaedon test (PHAECO spray treatment)", "settings": "application rate 500 g/ha, Chinese cabbage leaf discs sprayed, after 7 days", "protocol": "• Solvent: 78.0 parts by weight of acetone • 1.5 parts by weight of dimethylformamide • Emulsifier: 0.5 part by weight of alkylaryl polyglycol ether\nTo produce a suitable preparation of active compound, 1 part by weight of active compound is mixed with the stated amounts of solvent and emulsifier, and the concentrate is diluted with emulsifier-containing water to the desired concentration. Discs of Chinese cabbage leaves (Brassica pekinensis) are sprayed with an active compound formulation of the desired concentration and, after drying, populated with larvae of the mustard beetle (Phaedon cochleariae). After 7 days, the activity in % is determined. 100% means that all of the beetle larvae have been killed; 0% means that none of the beetle larvae have been killed. In this test, for example, the following compounds of the Preparation Examples show, at an application rate of 500 g/ha, an activity of 100%: I-a-29, I-a-40."}, "[12]": {"test_system": "Polygonum convolvulus", "assay": "Pre-emergence herbicidal action against weed plants", "settings": "application rate 1280 g/ha, visual assessment after 3 weeks", "excerpt": "as §1"}, "[13]": {"test_system": "oilseed rape", "assay": "Pre-emergence test, damage to crop plants", "settings": "application rate 1280 g/ha, after 3 weeks", "excerpt": "as §1"}, "[14]": {"test_system": "corn", "assay": "Pre-emergence test, damage to crop plants", "settings": "application rate 1280 g/ha, after 3 weeks", "excerpt": "as §1"}, "[15]": {"test_system": "greenhouse red spider mite (Tetranychus urticae)", "assay": "Tetranychus test, OP-resistant (TETRUR spray treatment)", "settings": "application rate 500 g/ha, bean leaf discs sprayed, after 6 days", "protocol": "(§3) • Solvent: 78.0 parts by weight of acetone • 1.5 parts by weight of dimethylformamide • Emulsifier: 0.5 parts by weight of alkylaryl polyglycol ether\nTo produce a suitable preparation of active compound, 1 part by weight of active compound is mixed with the stated amounts of solvent and emulsifier, and the concentrate is diluted with emulsifier-containing water to the desired concentration. Discs of bean leaves (Phaseolus vulgaris) infested by all stages of the greenhouse red spider mite (Tetranychus urticae) are sprayed with an active compound formulation of the desired concentration. After 6 days, the activity in % is determined. 100% means that all of the spider mites have been killed; 0% means that none of the spider mites have been killed."}, "[16]": {"test_system": "Lolium multiflorum", "assay": "Post-emergence herbicidal action against weed plants", "settings": "application rate 320 g/ha, visual assessment after about 3 weeks", "protocol": "as §2"}, "[17]": {"test_system": "caterpillars of the armyworm (Spodoptera frugiperda)", "assay": "Spodoptera frugiperda test (SPODFR spray treatment)", "settings": "application rate 500 g/ha, corn leaf disks sprayed, after 7 days", "protocol": "as §3\nTo produce a suitable preparation of active compound, 1 part by weight of active compound is mixed with the stated amounts of solvent and emulsifier, and the concentrate is diluted with emulsifier-containing water to the desired concentration. Disks of corn leaves (Zea mays) are sprayed with an active compound preparation of the desired concentration and, after drying, populated with caterpillars of the armyworm (Spodoptera frugiperda). After 7 days, the activity in % is determined. 100% means that all of the caterpillars have been killed; 0% means that none of the caterpillars have been killed. In this test, for example, the following compounds of the Preparation Examples show, at an application rate of 500 g/ha, an activity of 85%: […], I-a-40. In this test, for example, the following compounds of the Preparation Examples show, at an application rate of 500 g/ha, an activity of 100%: I-a-38, I-a-39."}}, "note": "“And” between values parts separate entries of the source, which are not always exact repeats. Equal values may be shown once.", "data": [{"compound": "6-(4′-chloro-4-methylbiphenyl-3-yl)-5-oxo-4-(prop-2-yn-1-yl)-4,5-dihydro[1,3]thiazolo[4,5]pyridin-7-yl 2-methylpropanoate [I-a-42]", "values": [{"measurement": "herbicidal activity against Lolium multiflorum", "setting": "[1]", "value": "at least 80%"}, {"measurement": "herbicidal activity against Setaria viridis", "setting": "[2]", "value": "at least 80%"}, {"measurement": "damage in oilseed rape", "setting": "[3]", "value": "no damage"}, {"measurement": "damage in corn", "setting": "[4]; application rate 80 g/ha", "value": "no damage"}, {"measurement": "damage in corn", "setting": "[4]; application rate 320 g/ha", "value": "no damage"}, {"measurement": "damage in wheat", "setting": "[5]", "value": "no damage"}, {"measurement": "damage in rice", "setting": "[6]; application rate 80 g/ha", "value": "no damage"}, {"measurement": "damage in wheat", "setting": "[7]", "value": "no damage"}]}, {"compound": "Cn1c(=O)c(-c2c(F)ccc(-c3ccc(Cl)cc3Cl)c2Cl)c(O)c2scnc21", "note": "[I-a-19]", "values": [{"measurement": "herbicidal activity against Alopecurus myosuroides", "setting": "[8]", "value": "at least 80%"}, {"measurement": "herbicidal activity against Cyperus serotinus", "setting": "[9]", "value": "at least 80%"}, {"measurement": "damage in wheat", "setting": "[7]", "value": "no damage"}, {"measurement": "damage in rice", "setting": "[10]", "value": "no damage"}]}, {"compound": "C#CCn1c(=O)c(-c2c(Cl)cc(-c3ccc(Cl)cc3)cc2CC)c(O)c2scnc21", "note": "[I-a-29]", "values": [{"measurement": "activity in % (beetle larvae killed)", "setting": "[11]", "value": 100, "unit": "%"}]}, {"compound": "O=c1c(-c2ccc(-c3ccc(Cl)cc3)cc2Cl)c(OCC(F)F)c2scnc2n1CC(F)F", "note": "[I-a-32]", "values": [{"measurement": "herbicidal activity against Polygonum convolvulus", "setting": "[12]", "value": "at least 80%"}, {"measurement": "damage in oilseed rape", "setting": "[13]", "value": "no damage"}, {"measurement": "damage in corn", "setting": "[14]", "value": "no damage"}]}, {"compound": "C#CCn1c(=O)c(-c2cc(-c3ccc(Cl)cc3)ccc2Cl)c(O)c2scnc21", "note": "[I-a-37]", "values": [{"measurement": "activity in % (spider mites killed)", "setting": "[15]", "value": "85% and 90%"}]}, {"compound": "Cc1ccc(-c2ccc(Cl)cc2)cc1-c1c(O)c2scnc2n(C)c1=O", "note": "[I-a-38]", "values": [{"measurement": "herbicidal activity against Lolium multiflorum", "setting": "[16]", "value": "at least 80%"}, {"measurement": "activity in % (spider mites killed)", "setting": "[15]", "value": 85, "unit": "%"}, {"measurement": "activity in % (caterpillars killed)", "setting": "[17]", "value": "85% and 100%"}, {"measurement": "damage in corn", "setting": "[4]; application rate 320 g/ha", "value": "no damage"}, {"measurement": "damage in rice", "setting": "[6]; application rate 320 g/ha", "value": "no damage"}, {"measurement": "damage in oilseed rape", "setting": "[13]", "value": "no damage"}, {"measurement": "damage in corn", "setting": "[14]", "value": "no damage"}]}, {"compound": "Cc1ccc(-c2ccc(Cl)cc2)cc1-c1c(O)c2scnc2n(CC(F)F)c1=O", "note": "[I-a-39]", "values": [{"measurement": "activity in % (spider mites killed)", "setting": "[15]", "value": "85% and 90%"}, {"measurement": "activity in % (caterpillars killed)", "setting": "[17]", "value": "85% and 100%"}, {"measurement": "damage in oilseed rape", "setting": "[3]", "value": "no damage"}, {"measurement": "damage in corn", "setting": "[4]; application rate 320 g/ha", "value": "no damage"}, {"measurement": "damage in oilseed rape", "setting": "[13]", "value": "no damage"}, {"measurement": "damage in corn", "setting": "[14]", "value": "no damage"}]}, {"compound": "C#CCn1c(=O)c(-c2cc(-c3ccc(Cl)cc3)ccc2C)c(O)c2scnc21", "note": "[I-a-40, 6-(4′-chloro-4-methylbiphenyl-3-yl)-7-hydroxy-4-(prop-2-yn-1-yl)[1,3]thiazolo[4,5-b]pyridin-5(4H)-one]", "values": [{"measurement": "activity in % (caterpillars killed)", "setting": "[17]", "value": 85, "unit": "%"}, {"measurement": "activity in % (beetle larvae killed)", "setting": "[11]", "value": 100, "unit": "%"}]}]}
